As usually defined, the LD50 is the dose expected to kill half of the subjects tested. Read a high LD50 as a less toxic substance.

The values below come from patent publication US4391821A, “7-Substituted benzopyranes and process for the preparation thereof” (Chinoin Gyogyszer es Vegyeszeti Termekek Gyara R.T., priority 1980, dated 1983).

Data set [1] deals with blood pressure lowering and heart frequency increasing effects induced by isoproterenol. Put plainly: Isoproterenol-induced blood pressure lowering and heart frequency increase in cats. In kind it is in vivo. Conditions: LD50/10 i.v., 2 mg/kg i.v. isoproterenol.
Data set [2] has as its system rabbit ilium. Put plainly: Spasmolytic effect on rabbit ilium.
For data set [3], the system named is blood pressure and heart frequency. In kind it is in vivo, cats.
For data set [4], the system named is rat intestine. Put plainly: Spasms induced in rat intestine by acetylcholine or barium chloride.
The nature of data set [5]: Acute toxicity in mice i.v. The note with it: mouse, in vivo, iv.
Data set [6] deals with rat Langendorff-heart. Put plainly: Coronary flow in rat Langendorff-heart. Conditions: 10 μg/0,1 ml dose. The source says:
(§1) Propanolamines of formula (Ib) [drawing 4] constitute another special subgroup of compounds of formula (I). In formula (Ib) R1 and R2 are as defined above. These compounds have also very advantageous pharmaceutical effects, which, however, differ from the effects of the butanolamines of formula (Ia).

The subject of data set [7] is blood pressure. The data set can be described thus: Blood pressure, heart frequency and breathing in rabbits. The class given is in vivo. Conditions: i.v. or enterally.
From the text: as §1

In data set [8] the test system is trachea preparation. Put plainly: Antiisoproterenol effect in trachea preparation. The source says: (§2) The antiisoproterenol effect of the compound is moderated.
Data set [9] concerns guinea pig isolated left auricle. Put plainly: Effective refractory period in guinea pig isolated left auricle (electrophysiology). Conditions: 5×10^-5 M.
From the text: as §2

Data set [10] concerns β-receptor. Put plainly: Antiisoproterenol effect, overall and concentration curves.
From the text: as §2

Data set [11] has as its system ventricular fibrillation threshold. The data set can be described thus: Ventricular fibrillation threshold in open-chested anesthetized cats. The class given is in vivo. The source says: (§3) In formula (Ia) R1 and R2 are as defined above, preferably R1 is branched alkyl or cycloalkyl, and R2 is hydrogen.
In data set [12] the test system is guinea pig isolated left auricle. Put plainly: Antiisoproterenol effect in guinea pig isolated left auricle.
From the text: as §2

Data set [13] relates to ventricular tadhycardia provoked by Strophantin. Put plainly: Strophantin-provoked ventricular tachycardia in anesthetized cats. In kind it is in vivo.
From the text: as §3

Data set [14] has as its system arrhythmia induced by 30 μg/kg i.v. aconitin. The data set can be described thus: Aconitin-induced arrhythmia in rats. The class given is in vivo. Conditions: LD50/10 i.v.
From the text: as §3

Data set [15] has as its system increase of the T-wave in the electrocardiogram induced by ornithine-vasopressin. The data set can be described thus: Ornithine-vasopressin-induced T-wave increase in ECG of rabbits anesthetized with urethane (antianginic). The class given is in vivo. Conditions: LD50/40. The source says:
From the pharmaceutical point of view the strong antianginic effect of our compounds of formula (Ia) is very important.

As for `CC1CCc2ccc(OCC(O)CNC3CCCCC3)cc2O1` (centres unmarked) [1-(2-methyl-3,4-dihydro-2H-1-benzopyrane-7-yloxy)-3-cyclohexylamino-2-propanol], the “inhibition of blood pressure lowering and heart frequency increasing effects induced by isoproterenol” value in data set [1] is recorded as “inhibits strongly”.
As for `Cc1cc(=O)c2ccc(OCC(O)CNC(C)(C)C)cc2o1` (centres unmarked) [1-(2-methyl-4H-1-benzopyrane-4-one-7-yloxy)-3-(1,1-dimethylethylamino)-2-propanol], in data set [2], the spasmolytic effect result is “spasmolytic agent with parasympatholytic and direct striped muscle effects”. Further, in data set [3] (LD50/20 i.v., anesthetized cats), the “reduction of blood pressure” value is given as 50.2%. Further, the “effect on heart frequency” value in [3] (in vivo, iv) was “without significantly affecting their heart frequency”. Moreover, the “effect against spasms induced by acetylcholine” value in data set [4] (acetylcholine) is on record as “effective”. Further, the “effect against spasms induced by barium chloride” value in data set [4] (barium chloride) is given as “effective”.
The molecule `CC(C)NCC(O)COc1ccc2c(c1)OCCC2` (centres unmarked) [1-(3,4-dihydro-2H-1-benzopyrane-7-yloxy)-3-(1-methylethylamino)-2-propanol] displayed an LD50 in data set [5] of 66 mg/kg. Also, the blood pressure lowering in data set [3] (LD50/320 i.v., anesthetized cats) is given as 33,5%.
On to `CC(C)NCC(O)COc1ccc2c(c1)OCC(c1ccccc1)C2` (centres unmarked) [1-(3-phenyl-3,4-dihydro-2H-1-benzopyrane-7-yloxy)-3-(1-methylethylamino)-2-propanol], for which the coronary flow entry in data set [6] is “increases the coronary flow”. For the same molecule, in [7], the blood pressure lowering result is “significant and long-lasting blood pressure lowering”; the “effect on heart frequency, volume of breathing and frequency of breathing” value was “without affecting the heart frequency, the volume of breathing and the frequency of breathing”.
As for `OC(CCNC1CCCCC1)COc1ccc2c(c1)OC(c1ccccc1)CC2` (centres unmarked) [4-cyclohexylamino-1-(2-phenyl-3,4-dihydro-2H-1-benzopyrane-7-yloxy)-2-butanol], the “concentration with antiisoproterenol effect in trachea preparation” value in data set [8] is reported as 10^-4 M. The “effect on effective refractory period compared with Practolol” value in data set [9] (versus Practolol) is listed as “stronger by nearly an order of magnitude than that of Practolol”. Besides, in data set [9] (versus Propranolol), the “effect on effective refractory period compared with Propranolol” value was “almost as strong as the effect of Propranolol”. Besides, the antiisoproterenol effect entry in [10] (overall) is “moderated”. For the same molecule, the “character of the antiisoproterenol effect” value in [10] (runs of the concentration curves) is “not of a competitive character”. In addition, the ventricular fibrillation threshold entry in data set [11] is “remarkably increases”. Besides, in data set [11] (versus Propranolol), the “ventricular fibrillation threshold, effect compared with Propranolol” value was “stronger effect that that of Propranolol”. Also, the “concentration with antiisoproterenol effect in left auricle” value in data set [12] was determined as 50 µM. The “time for which ventricular tachycardia provoked by Strophantin is suspended” value in [13] is 19 min. Moreover, the “effect on arrhythmia induced by aconitin” value in data set [14] is reported as “revokes arrhythmia”.
As to `OC(CCNC1CCCCC1)COc1ccc2c(c1)OCC(c1ccccc1)C2` (centres unmarked) [4-cyclohexylamino-1-(3-phenyl-3,4-dihydro-2H-1-benzopyrane-7-yloxy)-2-butanol], in [15] (rabbits anesthetized with urethane, 0.5 E/kg ornithine-vasopressin), the “elimination of the increase of the T-wave in the electrocardiogram” value is recorded as “eliminates practically completely”. The “effect on T-wave increase compared with Propranolol” value in [15] (versus Propranolol) is listed as “significantly surpasses the effect of Propranolol”.
